# From PubChem BioAssay (NCI)
#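 Exposure lasted 48 hours, with cells grown in 96-well plates and compounds tested at five concentrations. GI50 marks 50% less growth. TGI marks complete inhibition of growth.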
# How the values were obtained:
# Test in all cases: NCI anticancer screen, dose series, 48 h
# 786-0 renal = system: 786-0 renal
# COLO 205 colon = system: COLO 205 colon
# HCT-116 colon = system: HCT-116 colon
# HOP-62 NSCLC = system: HOP-62 NSCLC
# HT29 colon = system: HT29 colon
# K-562 leukemia = system: K-562 leukemia
# NCI-H23 lung = system: NCI-H23 lung
# SF-268 CNS = system: SF-268 CNS
# SNB-19 CNS = system: SNB-19 CNS
# U251 CNS = system: U251 CNS
Compound,TGI (786-0 renal) [µM],TGI (COLO 205 colon) [µM],TGI (HCT-116 colon) [µM],TGI (HOP-62 NSCLC) [µM],TGI (HT29 colon) [µM],TGI (K-562 leukemia) [µM],TGI (NCI-H23 lung) [µM],TGI (SF-268 CNS) [µM],TGI (SNB-19 CNS) [µM],TGI (U251 CNS) [µM],GI50 (786-0 renal) [µM],GI50 (COLO 205 colon) [µM],GI50 (HCT-116 colon) [µM],GI50 (HOP-62 NSCLC) [µM],GI50 (HT29 colon) [µM],GI50 (K-562 leukemia) [µM],GI50 (NCI-H23 lung) [µM],GI50 (SF-268 CNS) [µM],GI50 (SNB-19 CNS) [µM],GI50 (U251 CNS) [µM]
Cc1csc(=S)n1OC(=O)NC1CCCCC1,> 50,> 40.2,96.8,> 100,> 95.5,> 100,> 47.3,> 100,> 100,> 100,–,–,–,–,–,–,–,–,–,–
NCCn1c(=O)[nH]c(=O)[nH]c1=S,> 100,> 100,> 100,> 100,> 100,> 100,> 100,> 100,> 100,> 100,> 100,> 100,> 100,> 100,> 100,54.1,> 100,> 100,> 100,> 100
COc1ccc(C2=Nc3ccccc3NC(=O)C2)cc1,> 100,> 100,42.3,45.6,> 100,> 100,67,78.1,> 100,82.3,–,–,–,–,–,–,–,–,–,–
Nn1c(NNC(=O)C(=O)Nc2cc(Cl)c(Cl)cc2Cl)n[nH]c1=S,> 100,> 100,> 100,> 100,> 100,> 100,> 100,> 100,> 100,> 100,–,–,–,–,–,–,–,–,–,–
O=c1cc(-c2ccccc2)[nH]c2ccccc12,> 100,–,> 100,> 100,> 34.8,> 100,> 100,> 100,> 100,> 100,2.81,0.45,0.547,4.85,0.39,–,1.16,3.18,0.881,0.573
COC(=O)C(=O)C1(CCC(C)=O)c2ccccc2-c2c(C)ccc(C)c21 (centres undefined),> 100,> 100,> 100,> 100,> 100,> 100,> 100,> 100,> 100,> 100,–,–,–,–,–,–,–,–,–,–
COc1ccc2c(c1)cn1c3ccc(O)cc3nc(N)c21,6.86,4.68,1.86,8.18,4.31,2.46,17.7,7.24,25,4.11,0.947,0.885,0.0341,0.205,1.45,0.0735,0.394,0.238,0.357,0.0547
COc1cc(C(=O)C/C(CCCC(=O)Nc2ccccc2[N+](=O)[O-])=N/NC(=O)c2cc3ccccc3cc2O)ccc1O,> 100,63.2,> 100,> 100,> 100,> 100,> 100,> 100,> 100,> 100,–,–,–,–,–,–,–,–,–,–
Cc1cc(N(CCCl)CCCl)ccc1C=Nc1ccc(-c2csc(Cc3ccccc3)n2)cc1,49.1,34.1,40.3,> 83,47.2,> 100,44.1,> 85.4,> 100,37.6,5.86,13.1,13.6,5.72,17.3,9.88,8.96,7.03,16.8,7.82
COc1ccc(/C=C2\CCCC3=C2N=C2SC(C)=NN2C3c2ccc(OC)c(OC)c2)cc1OC (centres undefined),> 100,> 100,14.3,> 100,90.1,> 100,> 100,> 100,> 100,> 100,11,5.24,3.26,19.8,11.1,3.98,8.2,18.2,39.2,26.2
CCCC(=O)OC1C(C(O)CO)OC2OC(C)(C)OC21 (centres undefined),> 100,> 100,> 100,> 100,> 100,< 3.16,> 100,> 100,> 100,> 100,–,–,–,–,–,–,–,–,–,–
COc1ccc2sc3c(NCCCN(C)C)nc4ccccc4c3c(=O)c2c1,2.71,3.52,3.01,3.2,3.02,4.71,3.06,3.35,3.06,3.27,1.34,1.58,1.57,1.6,1.5,1.8,1.59,1.67,1.64,1.53
C=CCC[CH2][Sn]([c]1ccccc1)([c]1ccccc1)[c]1ccccc1,2.87,3,2.15,3.99,4.73,16.5,3.01,2.71,3.31,3.01,1.54,1.64,0.977,2.25,2.25,2.15,1.64,1.26,1.73,1.65
O=C1[C@H]2ON(c3ccccc3)C(c3ccccc3Cl)[C@H]2C(=O)N1c1ccc(Cc2ccc(N3C(=O)[C@@H]4ON(c5ccccc5)C(c5ccccc5Cl)[C@@H]4C3=O)cc2)cc1 (some centres undefined),> 100,> 100,> 100,> 100,> 100,> 100,> 100,> 100,> 100,> 100,–,–,–,–,–,–,–,–,–,–
CC(=O)OCC1OC(OC2C(CSC3OC(COC(C)=O)C(OC(C)=O)C(OC(C)=O)C3OC(C)=O)OC(OC(C)=O)C(OC(C)=O)C2OC(C)=O)C(OC(C)=O)C(OC(C)=O)C1OC(C)=O (centres undefined),> 100,> 100,> 100,> 100,> 100,> 100,> 100,> 100,> 100,> 100,–,–,–,–,–,–,–,–,–,–
CC1SC2=NC3=C(c4ccccc4C3=O)C(c3ccc(F)cc3)N2C1=O (centres undefined),> 100,> 100,> 100,> 100,> 100,> 100,> 100,> 100,> 100,> 100,–,–,–,–,–,–,–,–,–,–

Compound,TGI (786-0 renal) [µM],TGI (COLO 205 colon) [µM],TGI (HCT-116 colon) [µM],TGI (HOP-62 NSCLC) [µM],TGI (HT29 colon) [µM],TGI (K-562 leukemia) [µM],TGI (NCI-H23 lung) [µM],TGI (SF-268 CNS) [µM],TGI (SNB-19 CNS) [µM],TGI (U251 CNS) [µM],GI50 (786-0 renal) [µM],GI50 (COLO 205 colon) [µM],GI50 (HCT-116 colon) [µM],GI50 (HOP-62 NSCLC) [µM],GI50 (HT29 colon) [µM],GI50 (K-562 leukemia) [µM],GI50 (NCI-H23 lung) [µM],GI50 (SF-268 CNS) [µM],GI50 (SNB-19 CNS) [µM],GI50 (U251 CNS) [µM]
CC1(C)CC(=O)c2c(C(F)(F)F)nn(-c3ccc(C(N)=O)c(NC4CCC(OC(=O)CN)CC4)c3)c2C1 (centres undefined),> 100,8.03,31.6,> 100,> 100,> 79.4,> 100,> 100,> 100,> 54.2,16.2,0.0289,0.0405,0.0785,0.0321,0.036,0.0935,0.271,0.142,0.0731
COc1ccc(OC)c(/C=C2\SC(=S)NC2=O)c1,> 100,> 100,> 100,> 100,> 100,> 100,68.6,> 100,> 100,> 100,30.8,48.3,29.9,30.9,42.1,42.5,23.1,31.4,79.8,41
N#C/C(=C\c1ccc(O)c(O)c1)C(N)=S,> 100,> 100,> 100,> 100,> 100,> 100,> 100,> 100,> 100,> 100,–,–,–,–,–,–,–,–,–,–
CCOc1ccc(NC(=O)C(=O)CC(=O)C2=C(C)Nc3ccccc3S2)cc1,> 50,> 50,> 50,> 50,> 50,> 50,> 50,> 50,> 50,> 50,–,–,–,–,–,–,–,–,–,–
CN(C)CCNc1c2c(c(NCCN(C)C)c3[nH]ccc13)C(=O)c1ccccc1C2=O,–,> 100,–,9.27,–,–,–,5.91,12.1,15.9,0.899,4.32,0.281,0.894,0.465,0.654,1.82,1.39,0.93,0.507
CC1OC(O[C@@H]2OC=C(C=O)[C@@]3(O)CC[C@H](C)[C@@H]23)C(O)C(O)C1O (some centres undefined),> 100,> 100,> 100,> 100,> 100,> 100,> 100,> 100,> 100,> 100,–,–,–,–,–,–,–,–,–,–
CC1(C)C(=NNC(=O)C[N+](C)(C)C)C(C)(C)C1=NNC(=O)C[N+](C)(C)C,> 100,> 100,> 100,> 100,> 100,> 100,> 100,> 100,> 100,> 100,–,–,–,–,–,–,–,–,–,–
O=[N+]([O-])C1C2C=CC(C2)[C@H]1c1ccco1 (some centres undefined),> 100,> 100,> 100,> 100,9.22,> 100,2.36,> 100,> 100,> 100,–,–,–,–,–,–,–,–,–,–
N#Cc1c(N2CCCC2)[nH]c(=O)c(C(c2c(Cl)cccc2Cl)c2c(O)c(C#N)c(N3CCCC3)[nH]c2=O)c1O,> 100,17.4,40,49.6,35.5,> 100,31,29.3,18.2,95.1,4.34,5.11,14.7,21.2,15.8,27.4,11.6,11.9,4.24,13.4
COc1cc(/C=C/c2cc(O)c3cc(C(C)=O)c(=O)oc3c2)cc2c1O[C@]1(C)CC[C@@H](O)C(C)(C)[C@H]1C2,> 25.3,> 59.8,> 52.3,> 79.9,> 62.2,> 100,> 55,> 56.4,> 95.4,> 81.4,–,> 27.5,> 19.7,> 26.8,> 24.9,–,> 22.2,> 21.4,> 21.9,–
CCc1ccccc1NC(=O)C(=O)CC(=O)c1sc(Nc2ccccc2)nc1C,> 100,> 100,> 100,> 100,> 100,> 100,> 100,> 100,> 100,> 100,–,–,–,–,–,–,–,–,–,–
COc1ccc(OC)c(NC(=O)C2=C(C)NC(C)=C(C(=O)Nc3cc(OC)ccc3OC)C2c2ccccc2)c1,> 100,> 100,> 100,> 100,> 100,> 100,> 100,> 100,> 100,> 100,–,–,–,–,–,–,–,–,–,–
O=C1c2cccnc2C(=O)c2nc3cc(N4CCN(C5CC5)CC4)ccc3nc21,4,2.34,7.12,1.05,4.96,> 20.7,0.85,4.93,3.63,2.02,1.38,0.558,0.789,0.232,0.658,0.522,0.229,1.24,0.465,0.383
COc1ccc2c(c1)/C(=C\c1c(C)nc3sccn13)C(=O)N2,> 100,–,> 31.8,> 100,> 100,> 100,> 100,> 100,> 100,> 100,–,< 0.0506,–,–,–,0.0956,0.382,15.7,0.525,–
COc1ccc(-c2c3c(N)nc(-c4ccncc4)nc3nc3c2c(C)nn3-c2ccccc2)cc1,> 100,> 100,13.6,37.6,16,> 100,> 100,> 100,> 100,19,7.12,6.12,2.46,2.41,3.57,3.13,9.67,7.93,65.1,3.6
